Entries after “also recorded” stand apart in the source; their conditions may differ.

The target in assay [1] is purified and modified human CYP17A1 (Homo sapiens, UniProt P05093). Nature of the assay: Spectral assay for ligand binding. The settings on record: for type of difference spectrum induced: UV-visible difference spectroscopy; for Kd: read-out: Ks (spectral binding constant), 200 nM CYP17A1, 0.1 M potassium phosphate pH 7.4, 20% glycerol, room temperature, means ± SE of 2-4 experiments.

Assay [2] addresses T1, native human CYP17A1 enzyme in yeast microsomes (Homo sapiens, UniProt P05093).
T1 sequence (P05093 1-508): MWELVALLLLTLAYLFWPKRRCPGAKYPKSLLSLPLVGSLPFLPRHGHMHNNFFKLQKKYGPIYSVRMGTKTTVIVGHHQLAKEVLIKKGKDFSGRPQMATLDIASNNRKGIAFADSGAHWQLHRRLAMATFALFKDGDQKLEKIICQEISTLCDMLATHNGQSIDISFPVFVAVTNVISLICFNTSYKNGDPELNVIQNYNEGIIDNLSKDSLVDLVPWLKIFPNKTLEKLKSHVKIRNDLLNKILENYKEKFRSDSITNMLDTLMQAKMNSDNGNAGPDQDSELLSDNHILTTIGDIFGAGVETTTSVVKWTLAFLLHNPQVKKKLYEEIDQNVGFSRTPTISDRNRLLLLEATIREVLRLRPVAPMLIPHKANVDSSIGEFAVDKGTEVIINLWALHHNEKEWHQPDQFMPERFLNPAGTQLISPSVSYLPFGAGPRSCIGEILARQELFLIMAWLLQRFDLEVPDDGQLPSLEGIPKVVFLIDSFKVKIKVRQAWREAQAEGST
The assay is described as follows: CYP17A1 hydroxylase activity assay. It counts as biochemical. To be noted: for mode of inhibition: Lineweaver-Burk and Cornish-Bowden plots, progesterone hydroxylation.

A further assay deals with CYP17A1. The settings on record: CYP17A1 inhibitor; statement in introduction, no reference given; cited from earlier work.

For the compound `C[C@]12CC[C@H](O)CC1=CC[C@@H]1[C@@H]2CC[C@]2(C)C(c3cccnc3)=CC[C@@H]12` [Abiraterone, abiraterone, reference compound], in assay [1], the “type of difference spectrum induced” value is “type II difference spectrum” and the Kd stood at 2.6 ± 3.2 nM. In assay [2], this compound returned a Ki of 27 nM. The “mode of inhibition” value in assay [2] (listed as Abi) was “mixed-type inhibitors”. Further, the “potency relative to ketoconazole” value with CYP17A1 is reported as “about 20 times”.

For `C[C@]12CC[C@@H](O)C[C@@H]1CC[C@@H]1[C@@H]2CC[C@]2(C)C(c3cccnc3)=CC[C@@H]12` [Compound 5, 17-(3-pyridyl)-5α-androsta-16-ene-3α-ol], in assay [1], the “type of difference spectrum induced” value is “type II difference spectrum”. Besides, in assay [2], the Ki came out at 14 nM and the “mode of inhibition” value is recorded as “mixed-type inhibitors; also recorded: mixed competitive-noncompetitive inhibition”.

`C[C@]12CCC(=O)C[C@@H]1CC[C@@H]1[C@@H]2CC[C@]2(C)C(c3cccnc3)=CC[C@@H]12` [Compound 6, 17-(3-pyridyl)-5α-androsta-16-ene-3-one]: the “type of difference spectrum induced” value in assay [1] is given as “type II difference spectrum”. For the same compound, in assay [2], affinity was put at a Ki of 7 nM and the “mode of inhibition” value was “mixed-type inhibitors; also recorded: mixed competitive-noncompetitive inhibition”.

As for `C[C@]12CCC(=O)C=C1CC[C@@H]1[C@@H]2CC[C@]2(C)C(c3cccnc3)=CC[C@@H]12` [Compound 11, 17-(3-pyridyl)androsta-4,16-dien-3-one], the “type of difference spectrum induced” value in assay [1] is “type II difference spectrum”. Moreover, in assay [2], the Ki came to 22 nM and the “mode of inhibition” value is “mixed-type inhibitors; also recorded: mixed competitive-noncompetitive inhibition”.

For `C[C@]12CC[C@@H](O)C=C1CC[C@@H]1[C@@H]2CC[C@]2(C)C(c3cccnc3)=CC[C@@H]12` [Compound 13, 17-(3-pyridyl)androsta-4,16-dien-3α-ol], in assay [1], the “type of difference spectrum induced” value is reported as “type II difference spectrum” and the Kd came out at 1660 ± 286 nM. Besides, in assay [2], the Ki was 80 nM and the “mode of inhibition” value is “primarily non-competitive inhibition; also recorded: non-competitive inhibitor; also recorded: primarily noncompetitive; also recorded: largely noncompetitive mode of inhibition”. In addition, in assay [2] (progesterone as substrate), the Type of inhibition entry was “N”.

In general, Ki refers to the equilibrium dissociation constant of an inhibitor or competing ligand from its target.

The values above are taken from publication PMC4272579 (The Journal of steroid biochemistry and molecular biology, 2014).
